Measured values as given in patent US10064865B2, “Composition comprising phosphodiesterase type 5 inhibitor for inhibiting apoptosis of nerve cells” (ARIBIO INC., priority 2012, dated 2018).
Marks after values point to notes of the source that are not given here.

What was measured:
[1] = tested on: neuron apoptosis-operated rats; experiment: Example 1 forelimb placing test; assay type: in vivo, Sprague-Dawley (SD) rats
Experimental: Sensorimotor function was evaluated by use of limb placing de Ryck M et al., Stroke. 20:1383-90(1989)) and body swing (Borlongan and Sanberg, J Neurosci. 15:5372-8(1995)) tests. These tests were performed one day before neuron apoptosis to obtain a baseline and then at 1, 3, 7, 14, 21 and 28 days after neuron apoptosis. Behavioral tests were done before drug administration on days when both were scheduled. The investigator performing the surgery and behavioral assessments was blinded to treatment assignment.
Limb placing test: Forelimb and hindlimb placement were assessed independently. For the forelimb placing test, the rats were held by their torso with their forepaws hanging free and moved slowly toward the edge of a tabletop, stopping short of touching the vibrissae (for vision-induced placing), touching the vibrissae (for vibrissae-induced placing), making light contact with the front of the forepaw to the edge of the tabletop (for tactile-induced placing), and pressing the forepaws to the edge of the table with increased pressure (for proprioceptive-induced placing). Hindlimb placing was conducted in the same manner as above but with tactile and proprioceptive stimulation applied to the front/top of each hindlimb. Each limb for placing in response to visual, vibrissae, tactile, and proprioceptive stimulation are scored in the following manner (A total of 12 points in forelimb placing test and 6 points in hindlimb placing test means maximal neurological deficit, and 0 points means normal performance):
Normal performance=0 points;
Performance with unilateral limb=1 point;
Performance with a delay (2 seconds) and/or incomplete=2 point;
All data were expressed as mean±standard deviation (S.D.) of ten rats. Multiple comparison tests for different dose groups were conducted. Variance homogeneity was examined using the Levene test (Levene A, Clin Otalary, 1981; 6:145-51). […] Statistical analyses were conducted using SPSS (Release 14K, SPSS Inc., USA; Ludbrook, Clin Exp Pharmacol Physiol, 1997; 24:294-6). In addition, the percent changes between neuron apoptosis control and mirodenafil treated rats were calculated to help the understanding of the efficacy of test material as follow equation 3. Percentage changes as compared with neuron apoptosis control (%)=[((Data of mirodenafil treated groups−Data of neuron apoptosis control)/Data of neuron apoptosis control)×100] [EQUATION 3]

[2] = tested on: neuron apoptosis-operated rats; experiment: Example 2 water tank task (water maze); assay type: in vivo, Sprague-Dawley (SD) rats
Experimental: Cognitive testing was conducted using the water tank task (J Neurosci Methods. 11:47-60(1984)). On the days 14 and 28 after neuron apoptosis, the rats were given a series of 3 trials, 10 min apart in a large dark-colored tank (150 cm in diameters×50 cm in height) filled with clear water at a temperature of 22.0±1.0° C. A 15×30 cm submerged platform (2 mm below water surface) was placed in the northwest quadrant of the pool. The release point was always the southern end of the pool. The rats were lowered into the pool facing the wall and were released. The swim paths of the rats for each trials were recorded with a computer interfaced camera tracking system (Smart junior, PanLab, Spain), and the distances (m) and times (sec) taken to reach the escape platform were measured.
All data were expressed as mean±standard deviation (S.D.) of ten rats. Multiple comparison tests for different dose groups were conducted. Variance homogeneity was examined using the Levene test (Levene A, Clin Otalary, 1981; 6:145-51). […] Statistical analyses were conducted using SPSS for Windows (Release 14K, SPSS Inc., USA; Ludbrook, Clin Exp Pharmacol Physiol, 1997; 24:294-6). In addition, the percent changes as compared with neuron apoptosis control and mirodenafil treated rats were calculated to help the understanding of the efficacy of test substances as follow Equation 6 and 7. Percentage Changes as Compared with Sham Control (%)=[((Data of neuron apoptosis control−Data of sham control rat)/Data of sham control rats)×100] [EQUATION 6] Percentage Changes as Compared with neuron apoptosis Control (%)=[((Data of test material treated rats−Data of neuron apoptosis control rats)/Data of neuron apoptosis control rats)×100] [EQUATION 7]

[3] = 1 mg/kg from 24 hrs after surgery
[4] = 1 mg/kg from 72 hrs after surgery
[5] = 1 mg/kg from 168 hrs after surgery

CCCOc1ccc(S(=O)(=O)N2CCN(CCO)CC2)cc1-c1nc2c(CCC)cn(CC)c2c(=O)[nH]1 [Mirodenafil, mirodenafil]
Forelimb placing test score ([1]; 0.5 mg/kg group, day 1 after operation (before drug administration)): 12.00 ± 0.00^d
Forelimb placing test score ([1]; 0.5 mg/kg group, day −1 (baseline)): 0.70 ± 0.67
Forelimb placing test score ([1]; 0.5 mg/kg s.c. once a day, day 3 after operation): 8.00 ± 1.15^a
Forelimb placing test score ([1]; 0.5 mg/kg s.c. once a day, day 7 after operation): 7.80 ± 1.55^a
Forelimb placing test score ([1]; 0.5 mg/kg s.c. once a day, day 14 after operation): 6.80 ± 1.14^ac
Forelimb placing test score ([1]; 0.5 mg/kg s.c. once a day, day 21 after operation): 6.40 ± 1.17^a
Forelimb placing test score ([1]; 0.5 mg/kg s.c. once a day, day 28 after operation): 5.40 ± 1.07^a
forelimb placing test scores, change as compared with neuron apoptosis control ([1]; 0.5 mg/kg, 3 days after surgery): −3.61%
forelimb placing test scores, change as compared with neuron apoptosis control ([1]; 0.5 mg/kg, 7 days after surgery): −10.34%
forelimb placing test scores, change as compared with neuron apoptosis control ([1]; 0.5 mg/kg, 14 days after surgery): −12.82%
forelimb placing test scores, change as compared with neuron apoptosis control ([1]; 0.5 mg/kg, 21 days after surgery): −11.11%
forelimb placing test scores, change as compared with neuron apoptosis control ([1]; 0.5 mg/kg, 28 days after surgery): −12.90%
Forelimb placing test score ([1]; 1 mg/kg group, day 1 after operation (before drug administration)): 12.00 ± 0.00^d
Forelimb placing test score ([1]; 1 mg/kg group, day −1 (baseline)): 0.70 ± 0.48
Forelimb placing test score ([1]; 1 mg/kg s.c. once a day, day 3 after operation): 6.80 ± 1.23^ab
Forelimb placing test score ([1]; 1 mg/kg s.c. once a day, day 7 after operation): 6.10 ± 1.20^ab
Forelimb placing test score ([1]; 1 mg/kg s.c. once a day, day 14 after operation): 5.30 ± 1.06^ab
Forelimb placing test score ([1]; 1 mg/kg s.c. once a day, day 21 after operation): 4.20 ± 1.23^ab
Forelimb placing test score ([1]; 1 mg/kg s.c. once a day, day 28 after operation): 2.70 ± 1.06^ab
forelimb placing test scores, change as compared with neuron apoptosis control ([1]; 1 mg/kg, 3 days after surgery): −18.07%
forelimb placing test scores, change as compared with neuron apoptosis control ([1]; 1 mg/kg, 7 days after surgery): −29.89%
forelimb placing test scores, change as compared with neuron apoptosis control ([1]; 1 mg/kg, 14 days after surgery): −32.05%
forelimb placing test scores, change as compared with neuron apoptosis control ([1]; 1 mg/kg, 21 days after surgery): −41.67%
forelimb placing test scores, change as compared with neuron apoptosis control ([1]; 1 mg/kg, 28 days after surgery): −56.45%
Forelimb placing test score ([1]; 2 mg/kg group, day 1 after operation (before drug administration)): 12.00 ± 0.00^d
Forelimb placing test score ([1]; 2 mg/kg group, day −1 (baseline)): 0.60 ± 0.70
Forelimb placing test score ([1]; 2 mg/kg s.c. once a day, day 3 after operation): 6.20 ± 0.92^ab
Forelimb placing test score ([1]; 2 mg/kg s.c. once a day, day 7 after operation): 5.70 ± 0.67^ab
Forelimb placing test score ([1]; 2 mg/kg s.c. once a day, day 14 after operation): 4.70 ± 0.67^ab
Forelimb placing test score ([1]; 2 mg/kg s.c. once a day, day 21 after operation): 4.10 ± 0.88^ab
Forelimb placing test score ([1]; 2 mg/kg s.c. once a day, day 28 after operation): 2.60 ± 0.84^ab
forelimb placing test scores, change as compared with neuron apoptosis control ([1]; 2 mg/kg, 3 days after surgery): −25.30%
forelimb placing test scores, change as compared with neuron apoptosis control ([1]; 2 mg/kg, 7 days after surgery): −34.48%
forelimb placing test scores, change as compared with neuron apoptosis control ([1]; 2 mg/kg, 14 days after surgery): −39.74%
forelimb placing test scores, change as compared with neuron apoptosis control ([1]; 2 mg/kg, 21 days after surgery): −43.06%
forelimb placing test scores, change as compared with neuron apoptosis control ([1]; 2 mg/kg, 28 days after surgery): −58.06%
mean distances to reach the escape platform at 28 days, change as compared with neuron apoptosis control [2, 3]: −26.45%
mean time to reach the escape platform at 28 days, change as compared with neuron apoptosis control [2, 3]: −24.49%
mean distances to reach the escape platform at 28 days, change as compared with neuron apoptosis control [2, 4]: −16.05%
mean time to reach the escape platform at 28 days, change as compared with neuron apoptosis control [2, 4]: −17.33%
mean distances to reach the escape platform at 28 days, change as compared with neuron apoptosis control [2, 5]: −6.42%
mean time to reach the escape platform at 28 days, change as compared with neuron apoptosis control [2, 5]: −5.36%
